Assay results reported in patent US20240141061A1, “NOVEL ANTIBODY AGAINST CD55 AND USE THEREOF” (SG MEDICAL INC, priority 2021, published 2024).

How the values were obtained:
[1] = test system: PC9 NSCLC cells; assay: Apoptosis by FACS in PC9 NSCLC cells; format: cell-based; details: 5 μg/mL gefitinib alone, 24 hours
Method: (§1) 24 hours later, after treating with 5 μg/mL gefitinib or 5 μg/mL gefitinib and 5 μg/mL 4-1H or EP-10H diluted with 500 μL of RPMI, the cells were cultured again for 24 hours under the condition of 37° C. and 5% CO2. Then, apoptotic cells were analyzed with the FACS analysis equipment Attune N×T using 7-AAD and an FITC annexin V apoptosis detection kit (FIG. 7b).

[2] = test system: PC9-GR cells; assay: Apoptosis by FACS in gefitinib-resistant PC9-GR cells; format: cell-based; details: 5 μg/mL gefitinib alone, 24 hours
Method: as §1

COc1cc2ncnc(Nc3ccc(F)c(Cl)c3)c2cc1OCCCN1CCOCC1 [Gefitinib, gefitinib, reference compound]
induction of apoptosis [1]: induced apoptosis
induction of apoptosis [2]: did not show the effect
